The record followed here is ChEMBL document CHEMBL3991601, “The target landscape of clinical kinase drugs” (Science, 2017).

Calls of active or inactive are those of the source. Bounds are passed on as bounds.

Test [1] concerns the target T1, Dual specificity mitogen-activated protein kinase kinase 5 (Homo sapiens, UniProt Q13163).
T1 sequence (Q13163 whole entry): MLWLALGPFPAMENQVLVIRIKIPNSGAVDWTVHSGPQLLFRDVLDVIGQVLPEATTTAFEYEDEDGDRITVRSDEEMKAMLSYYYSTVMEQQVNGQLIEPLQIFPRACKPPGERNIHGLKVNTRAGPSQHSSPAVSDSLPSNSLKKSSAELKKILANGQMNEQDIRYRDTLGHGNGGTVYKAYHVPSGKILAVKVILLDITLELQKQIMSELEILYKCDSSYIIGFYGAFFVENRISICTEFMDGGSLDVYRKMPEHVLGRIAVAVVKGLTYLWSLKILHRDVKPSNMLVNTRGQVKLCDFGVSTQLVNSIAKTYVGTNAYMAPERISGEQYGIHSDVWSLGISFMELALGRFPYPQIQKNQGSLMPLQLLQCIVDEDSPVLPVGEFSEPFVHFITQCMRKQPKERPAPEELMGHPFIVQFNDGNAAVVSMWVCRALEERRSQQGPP

For test [2], the target named is Mitogen-activated protein kinase 1 (Homo sapiens, UniProt P28482).
The target in test [3] is T2, Mitogen-activated protein kinase kinase kinase kinase 2 (Homo sapiens, UniProt Q12851).
T2 sequence (Q12851 whole entry): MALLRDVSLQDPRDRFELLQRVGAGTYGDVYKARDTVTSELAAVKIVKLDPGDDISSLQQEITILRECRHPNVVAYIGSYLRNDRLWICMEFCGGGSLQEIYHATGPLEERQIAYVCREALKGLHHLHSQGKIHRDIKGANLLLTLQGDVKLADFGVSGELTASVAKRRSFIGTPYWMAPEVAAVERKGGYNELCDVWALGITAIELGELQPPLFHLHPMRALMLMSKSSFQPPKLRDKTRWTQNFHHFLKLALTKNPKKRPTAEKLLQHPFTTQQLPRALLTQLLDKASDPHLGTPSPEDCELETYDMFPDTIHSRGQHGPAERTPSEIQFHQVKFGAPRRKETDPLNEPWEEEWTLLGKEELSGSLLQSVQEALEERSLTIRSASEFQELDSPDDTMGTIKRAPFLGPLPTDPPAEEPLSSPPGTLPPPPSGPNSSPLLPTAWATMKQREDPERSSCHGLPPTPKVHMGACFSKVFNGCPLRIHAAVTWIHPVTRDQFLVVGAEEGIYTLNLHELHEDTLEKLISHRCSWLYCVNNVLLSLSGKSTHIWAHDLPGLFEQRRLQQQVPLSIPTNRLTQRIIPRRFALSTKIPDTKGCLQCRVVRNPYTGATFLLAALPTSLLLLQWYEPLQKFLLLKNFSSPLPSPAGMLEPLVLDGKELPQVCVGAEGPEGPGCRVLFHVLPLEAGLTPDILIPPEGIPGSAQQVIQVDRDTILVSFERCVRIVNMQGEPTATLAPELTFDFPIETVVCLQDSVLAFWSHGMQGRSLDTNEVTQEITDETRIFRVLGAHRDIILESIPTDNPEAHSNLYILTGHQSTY

The target in test [4] is cAMP-dependent protein kinase catalytic subunit alpha (Homo sapiens, UniProt P17612).
Test [5] concerns the target Activin receptor type-2B (Homo sapiens, UniProt Q13705).
Test [6] has as its target T3, Dynamin-like GTPase OPA1, mitochondrial (Homo sapiens, UniProt O60313).
T3 sequence (O60313 whole entry): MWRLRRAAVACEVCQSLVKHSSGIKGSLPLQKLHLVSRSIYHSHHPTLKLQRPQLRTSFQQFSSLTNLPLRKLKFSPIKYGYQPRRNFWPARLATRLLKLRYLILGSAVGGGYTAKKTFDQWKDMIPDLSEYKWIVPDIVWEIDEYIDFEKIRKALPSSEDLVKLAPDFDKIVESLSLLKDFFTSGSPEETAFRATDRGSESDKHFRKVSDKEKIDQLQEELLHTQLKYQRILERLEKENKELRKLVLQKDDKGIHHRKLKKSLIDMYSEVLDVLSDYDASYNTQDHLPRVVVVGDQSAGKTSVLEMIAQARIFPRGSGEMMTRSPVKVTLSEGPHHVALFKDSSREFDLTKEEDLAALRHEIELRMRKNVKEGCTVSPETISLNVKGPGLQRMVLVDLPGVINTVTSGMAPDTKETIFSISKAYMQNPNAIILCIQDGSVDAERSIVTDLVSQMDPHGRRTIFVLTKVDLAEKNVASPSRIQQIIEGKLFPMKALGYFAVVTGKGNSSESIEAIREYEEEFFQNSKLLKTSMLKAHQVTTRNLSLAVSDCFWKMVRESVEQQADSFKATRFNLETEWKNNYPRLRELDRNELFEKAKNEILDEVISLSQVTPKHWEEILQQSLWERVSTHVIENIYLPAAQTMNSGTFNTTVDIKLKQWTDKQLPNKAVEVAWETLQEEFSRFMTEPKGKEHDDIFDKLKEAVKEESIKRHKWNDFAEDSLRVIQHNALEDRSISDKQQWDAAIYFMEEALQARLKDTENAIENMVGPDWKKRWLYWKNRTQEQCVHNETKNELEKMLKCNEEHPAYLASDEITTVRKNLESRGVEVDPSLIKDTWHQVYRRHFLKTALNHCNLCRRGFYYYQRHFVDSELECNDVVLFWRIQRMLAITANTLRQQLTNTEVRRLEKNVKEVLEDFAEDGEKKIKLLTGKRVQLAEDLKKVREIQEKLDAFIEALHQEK

In test [7] the target is U5 small nuclear ribonucleoprotein 200 kDa helicase (Homo sapiens, UniProt O75643).
Test [8] has as its target Eukaryotic translation initiation factor 2-alpha kinase 1 (Homo sapiens, UniProt Q9BQI3).
For test [9], the target named is T4, Rab-like protein 3 (Homo sapiens, UniProt Q5HYI8).
T4 sequence (Q5HYI8 whole entry): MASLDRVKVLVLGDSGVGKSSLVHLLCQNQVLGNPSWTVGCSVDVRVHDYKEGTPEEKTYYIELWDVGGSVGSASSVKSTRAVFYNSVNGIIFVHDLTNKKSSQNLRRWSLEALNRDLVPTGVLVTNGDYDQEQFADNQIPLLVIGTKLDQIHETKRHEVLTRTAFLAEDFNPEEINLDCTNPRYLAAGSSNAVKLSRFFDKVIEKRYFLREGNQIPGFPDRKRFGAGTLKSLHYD

The target in test [10] is Ribosomal protein S6 kinase beta-1 (Homo sapiens, UniProt P23443).
Also: in the data inactive means no Kd found up to 30 µM.

Sequence of Mitogen-activated protein kinase 1 (P28482 whole entry): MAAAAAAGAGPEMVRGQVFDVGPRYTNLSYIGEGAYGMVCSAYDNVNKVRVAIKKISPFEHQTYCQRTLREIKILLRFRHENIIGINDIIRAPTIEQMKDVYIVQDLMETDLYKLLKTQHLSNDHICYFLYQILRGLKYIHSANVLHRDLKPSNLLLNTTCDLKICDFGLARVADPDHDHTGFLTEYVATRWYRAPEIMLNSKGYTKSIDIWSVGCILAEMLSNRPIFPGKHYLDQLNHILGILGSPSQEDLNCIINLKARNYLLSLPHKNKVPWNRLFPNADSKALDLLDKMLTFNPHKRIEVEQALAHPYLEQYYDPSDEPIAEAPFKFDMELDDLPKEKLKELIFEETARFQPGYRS
Sequence of Activin receptor type-2B (Q13705 whole entry): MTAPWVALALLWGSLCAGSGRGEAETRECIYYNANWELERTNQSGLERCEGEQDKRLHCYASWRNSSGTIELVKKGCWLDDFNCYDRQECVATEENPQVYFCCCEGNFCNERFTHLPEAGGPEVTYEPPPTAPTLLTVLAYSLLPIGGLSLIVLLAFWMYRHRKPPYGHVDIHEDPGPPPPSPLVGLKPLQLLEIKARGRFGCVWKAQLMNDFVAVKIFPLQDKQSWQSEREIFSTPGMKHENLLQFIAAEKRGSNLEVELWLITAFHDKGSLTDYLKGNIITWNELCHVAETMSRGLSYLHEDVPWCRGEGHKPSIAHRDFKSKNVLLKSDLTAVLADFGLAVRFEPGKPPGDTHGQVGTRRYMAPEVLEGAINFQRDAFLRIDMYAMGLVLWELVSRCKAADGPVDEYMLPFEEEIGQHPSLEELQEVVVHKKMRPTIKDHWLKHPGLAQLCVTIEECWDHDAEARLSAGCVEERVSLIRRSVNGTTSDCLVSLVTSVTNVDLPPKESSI
Sequence of Ribosomal protein S6 kinase beta-1 (P23443 whole entry): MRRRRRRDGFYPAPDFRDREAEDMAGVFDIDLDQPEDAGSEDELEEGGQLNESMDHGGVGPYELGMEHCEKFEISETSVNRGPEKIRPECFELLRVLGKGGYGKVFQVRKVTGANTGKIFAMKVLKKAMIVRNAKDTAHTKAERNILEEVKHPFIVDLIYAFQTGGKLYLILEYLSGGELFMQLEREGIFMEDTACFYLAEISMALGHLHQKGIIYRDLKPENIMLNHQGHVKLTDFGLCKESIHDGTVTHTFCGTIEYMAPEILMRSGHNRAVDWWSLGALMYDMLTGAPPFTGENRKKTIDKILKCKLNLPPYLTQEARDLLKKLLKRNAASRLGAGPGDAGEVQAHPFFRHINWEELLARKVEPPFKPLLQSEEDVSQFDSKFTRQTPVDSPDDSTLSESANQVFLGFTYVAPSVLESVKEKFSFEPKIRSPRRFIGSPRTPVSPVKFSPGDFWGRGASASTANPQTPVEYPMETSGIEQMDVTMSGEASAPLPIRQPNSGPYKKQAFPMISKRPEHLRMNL
Sequence of U5 small nuclear ribonucleoprotein 200 kDa helicase (O75643 whole entry): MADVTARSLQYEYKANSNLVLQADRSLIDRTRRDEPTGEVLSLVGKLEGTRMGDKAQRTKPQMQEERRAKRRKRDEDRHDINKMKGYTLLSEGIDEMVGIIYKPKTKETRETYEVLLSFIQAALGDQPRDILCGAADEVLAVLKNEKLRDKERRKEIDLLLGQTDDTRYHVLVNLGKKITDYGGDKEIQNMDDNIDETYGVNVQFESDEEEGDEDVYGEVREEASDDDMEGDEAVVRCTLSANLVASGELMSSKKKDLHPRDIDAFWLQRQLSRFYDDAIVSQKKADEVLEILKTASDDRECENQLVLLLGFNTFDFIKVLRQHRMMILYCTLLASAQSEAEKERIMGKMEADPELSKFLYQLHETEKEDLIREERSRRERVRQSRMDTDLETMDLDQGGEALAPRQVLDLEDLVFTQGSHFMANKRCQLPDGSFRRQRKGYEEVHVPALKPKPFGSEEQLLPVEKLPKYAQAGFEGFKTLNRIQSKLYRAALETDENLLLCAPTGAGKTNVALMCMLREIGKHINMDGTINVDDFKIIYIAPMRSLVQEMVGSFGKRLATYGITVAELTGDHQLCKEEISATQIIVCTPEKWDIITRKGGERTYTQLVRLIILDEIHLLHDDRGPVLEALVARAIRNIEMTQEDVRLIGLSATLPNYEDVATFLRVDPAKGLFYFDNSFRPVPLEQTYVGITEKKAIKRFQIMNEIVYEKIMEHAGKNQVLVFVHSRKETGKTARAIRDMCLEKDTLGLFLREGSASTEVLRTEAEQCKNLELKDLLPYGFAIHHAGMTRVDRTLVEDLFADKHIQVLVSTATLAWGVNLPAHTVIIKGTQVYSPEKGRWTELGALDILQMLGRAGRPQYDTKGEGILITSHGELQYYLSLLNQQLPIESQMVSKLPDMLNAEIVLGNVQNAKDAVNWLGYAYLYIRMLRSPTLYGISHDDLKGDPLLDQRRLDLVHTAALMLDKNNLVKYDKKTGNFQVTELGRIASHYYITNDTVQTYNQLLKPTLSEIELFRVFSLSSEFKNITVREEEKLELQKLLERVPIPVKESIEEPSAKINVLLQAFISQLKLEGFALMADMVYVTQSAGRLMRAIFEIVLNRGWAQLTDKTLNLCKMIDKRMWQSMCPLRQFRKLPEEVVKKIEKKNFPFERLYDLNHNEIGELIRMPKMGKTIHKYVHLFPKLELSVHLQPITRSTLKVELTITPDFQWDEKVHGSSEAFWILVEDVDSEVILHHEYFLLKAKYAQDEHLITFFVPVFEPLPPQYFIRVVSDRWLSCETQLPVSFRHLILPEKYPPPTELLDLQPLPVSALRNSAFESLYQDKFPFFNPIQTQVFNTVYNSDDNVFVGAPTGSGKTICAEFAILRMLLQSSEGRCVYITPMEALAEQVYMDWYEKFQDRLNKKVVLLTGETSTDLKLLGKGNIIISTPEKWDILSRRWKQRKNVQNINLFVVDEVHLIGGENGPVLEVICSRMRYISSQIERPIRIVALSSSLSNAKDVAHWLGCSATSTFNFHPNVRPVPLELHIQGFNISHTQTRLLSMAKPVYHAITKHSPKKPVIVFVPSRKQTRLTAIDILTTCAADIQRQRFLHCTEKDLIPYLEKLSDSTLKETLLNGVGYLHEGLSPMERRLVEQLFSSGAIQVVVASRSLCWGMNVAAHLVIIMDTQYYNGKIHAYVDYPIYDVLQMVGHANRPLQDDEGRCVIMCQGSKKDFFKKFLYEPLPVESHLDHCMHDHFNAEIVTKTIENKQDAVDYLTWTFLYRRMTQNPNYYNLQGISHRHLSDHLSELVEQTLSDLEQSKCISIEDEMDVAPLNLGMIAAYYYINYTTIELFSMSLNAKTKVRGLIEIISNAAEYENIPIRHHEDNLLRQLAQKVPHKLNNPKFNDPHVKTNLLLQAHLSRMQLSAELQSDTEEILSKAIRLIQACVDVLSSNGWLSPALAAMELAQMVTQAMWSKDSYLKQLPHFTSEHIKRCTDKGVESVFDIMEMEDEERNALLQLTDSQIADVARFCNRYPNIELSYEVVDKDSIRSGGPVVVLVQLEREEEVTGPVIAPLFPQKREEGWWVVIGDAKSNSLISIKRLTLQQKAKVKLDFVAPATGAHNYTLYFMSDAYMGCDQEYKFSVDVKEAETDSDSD
Sequence of Eukaryotic translation initiation factor 2-alpha kinase 1 (Q9BQI3 whole entry): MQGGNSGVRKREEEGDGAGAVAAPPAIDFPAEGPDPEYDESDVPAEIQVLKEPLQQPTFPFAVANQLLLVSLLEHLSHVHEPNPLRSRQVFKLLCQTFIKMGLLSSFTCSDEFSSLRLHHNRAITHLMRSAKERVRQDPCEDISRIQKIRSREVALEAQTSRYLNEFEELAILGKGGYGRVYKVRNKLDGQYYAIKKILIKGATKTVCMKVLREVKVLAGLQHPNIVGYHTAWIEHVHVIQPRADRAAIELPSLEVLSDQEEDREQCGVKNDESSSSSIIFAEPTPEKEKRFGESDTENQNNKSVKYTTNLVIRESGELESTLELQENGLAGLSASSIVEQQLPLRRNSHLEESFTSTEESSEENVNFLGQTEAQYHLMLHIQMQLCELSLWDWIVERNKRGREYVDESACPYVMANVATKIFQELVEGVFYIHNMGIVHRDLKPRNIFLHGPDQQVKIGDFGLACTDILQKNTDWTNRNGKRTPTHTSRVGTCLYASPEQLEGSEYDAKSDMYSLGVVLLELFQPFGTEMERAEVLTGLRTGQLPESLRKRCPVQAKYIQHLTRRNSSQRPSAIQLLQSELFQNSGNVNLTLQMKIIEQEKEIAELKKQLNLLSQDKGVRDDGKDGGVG

For orientation: Kd means the concentration at which binding is half-saturated. Turning to `O=C(Nc1ccc(-c2ccnc(Nc3ccc(N4CCOCC4)cc3)n2)cc1)C1CCCN1` (stereo not given) [XL-019], the Kd in [1], in test [2], in test [3], in [4], in [5] and in [6] was > 30 µM (inactive) in each case. Moreover, the Kd in test [7], in test [8], in test [9] and in test [10] was > 30 µM (inactive) each time.
With `Cn1cc(-c2ccc(F)c(C(F)(F)F)c2)nc1C1CCN(c2ncnc3[nH]ncc23)CC1` [LY-2584702], the Kd in test [1], in test [2], in test [3], in test [4], in test [5] and in test [6] was > 30 µM (inactive) in each case. The Kd in [7] is > 30 µM (inactive); in [8], > 30 µM (inactive); in [9] it was > 30 µM (inactive); in test [10], 0.015 µM (active).
In the case of `Cc1cc2c(F)c(Oc3ncnn4cc(OC[C@@H](C)OC(=O)[C@H](C)N)c(C)c34)ccc2[nH]1` [BRIVANIB ALANINATE], the Kd in test [1], in test [2], in test [3], in [4], in test [5] and in test [6] was > 30 µM (inactive) throughout. The Kd in test [7], in [8], in [9] and in test [10] was > 30 µM (inactive) each time.
As for `CNC(=O)c1ccc(C)c(-n2c(C)cc(OCc3ccc(F)cc3F)c(Br)c2=O)c1` [PH-797804], the Kd in [1], in [2], in test [3], in test [4], in [5] and in test [6] was > 30 µM (inactive) throughout. Further, the Kd in test [7], in [8], in [9] and in test [10] was > 30 µM (inactive) throughout.
As for `CNC(=O)c1cc(Oc2ccc(NC(=O)Nc3ccc(Cl)c(C(F)(F)F)c3)c(F)c2)ccn1` [REGORAFENIB], the Kd in [1], in test [2], in test [3], in test [4], in test [5] and in [6] was > 30 µM (inactive) throughout. The Kd in [7], in test [8], in test [9] and in test [10] was > 30 µM (inactive) in each case.
In the case of `COC(=O)N[C@@H](C)CNc1nccc(-c2cn(C(C)C)nc2-c2cc(Cl)cc(NS(C)(=O)=O)c2F)n1` [ENCORAFENIB], the Kd in test [1], in test [2], in test [3], in [4], in test [5] and in test [6] was > 30 µM (inactive) each time. Further, the Kd in [7], in [8], in test [9] and in test [10] was > 30 µM (inactive) each time.
As for `Cc1cc(-c2cc(O)ccc2Cl)cc2nnc(Nc3ccc(OCCN4CCCC4)cc3)nc12`, the Kd in [1], in test [2], in [3], in test [4], in [5] and in test [6] was > 30 µM (inactive) each time. In addition, the Kd in [7], in test [8], in test [9] and in [10] was > 30 µM (inactive) in each case.
On to `C=CC(=O)N1CCC(Oc2cc3c(Nc4ccc(Cl)c(Cl)c4F)ncnc3cc2OC)CC1` [POZIOTINIB], for which the Kd in [1], in test [2], in [3], in test [4], in [5] and in test [6] was > 30 µM (inactive) each time. Also, the Kd in [7], in test [8], in test [9] and in [10] was > 30 µM (inactive) in each case.
Take `O=C1NC(=O)/C(=C/c2ccc3nccc(-c4ccncc4)c3c2)S1` [GSK-1059615]: the Kd in test [1], in [2], in [3], in test [4], in test [5] and in test [6] was > 30 µM (inactive) each time. For the same compound, the Kd in test [7], in [8], in [9] and in [10] was > 30 µM (inactive) throughout.
With `CC[C@@H]1C(=O)N(C)c2cnc(Nc3ccc(C(=O)N[C@H]4CC[C@H](N5CCN(CC6CC6)CC5)CC4)cc3OC)nc2N1C(C)C` [VOLASERTIB], the Kd in test [1], in [2], in test [3], in [4], in test [5] and in [6] was > 30 µM (inactive) throughout. The Kd in test [7], in test [8], in test [9] and in test [10] was > 30 µM (inactive) each time.
